This passage reports IC50 results from US8841312B2, “Fused pyridine, pyrimidine and triazine compounds as cell cycle inhibitors” (Amgen Inc., priority 2007, dated 2014).

Structures are written as SMILES.

Cdk4/CyclinD1, sequence (P11802 whole entry): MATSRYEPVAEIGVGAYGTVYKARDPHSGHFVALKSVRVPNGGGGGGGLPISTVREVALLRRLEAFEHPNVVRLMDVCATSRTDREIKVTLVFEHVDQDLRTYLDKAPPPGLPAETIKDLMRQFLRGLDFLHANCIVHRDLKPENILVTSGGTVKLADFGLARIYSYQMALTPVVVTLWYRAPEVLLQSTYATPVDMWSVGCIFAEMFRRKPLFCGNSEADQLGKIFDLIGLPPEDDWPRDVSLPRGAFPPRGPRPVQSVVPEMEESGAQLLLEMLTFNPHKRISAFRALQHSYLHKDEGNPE
Cdk4/CyclinD1, sequence (P24385 whole entry partner): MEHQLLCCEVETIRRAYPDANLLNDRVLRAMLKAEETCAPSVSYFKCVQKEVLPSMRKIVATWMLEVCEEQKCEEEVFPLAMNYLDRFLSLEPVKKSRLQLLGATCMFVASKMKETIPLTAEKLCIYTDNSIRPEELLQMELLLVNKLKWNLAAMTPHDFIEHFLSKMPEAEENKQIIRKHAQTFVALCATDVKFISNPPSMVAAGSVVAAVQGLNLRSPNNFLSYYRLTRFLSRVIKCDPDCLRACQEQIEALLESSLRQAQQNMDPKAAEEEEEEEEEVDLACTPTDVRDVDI

The test deals with Cdk4/CyclinD1 (Homo sapiens (Human), UniProt P11802). Nature of the test: Cdk4 kinase inhibition assay with recombinant Cdk4/CyclinD1, Rb substrate, [33P]-ATP filter plate. Type of test: biochemical. The conditions noted are these: 25 μM ATP, read-out: Cdk 4 IC50. The essentials:
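Recombinant Cdk4/CyclinD1 or Cdk6/CyclinD3 phosphorylated Rb protein with [33P]-ATP for 1 h at room temperature. Protein was TCA-precipitated on filter plates and bound radioactivity counted. IC50 by nonlinear regression.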
The term IC50 denotes the concentration that inhibits the measured activity by half. Regarding `CC(C)n1c2cnccc2c2cnc(Nc3ccc(N4CCNCC4)cn3)nc21` [Example 159, 9-(1-methylethyl)-N-(5-(1-piperazinyl)-2-pyridinyl)-9H-pyrido[4′,3′:4,5]pyrrolo[2,3-d]pyrimidin-2-amine], the IC50 came to 3 nM.
Next, `COCC(C)(C)n1c2cnccc2c2cnc(Nc3ccc(N4CCC(N(C)C)CC4)cn3)nc21` [Example 273, N-(5-(4-(dimethylamino)-1-piperidinyl)-2-pyridinyl)-9-(2-methoxy-1,1-dimethylethyl)-9H-pyrido[4′,3′:4,5]pyrrolo[2,3-d]pyrimidin-2-amine]: 19 nM; `CNC1CCN(c2ccc(Nc3ncc4c5ccncc5n([C@@H](C)CO)c4n3)nc2)CC1` [Example 367]: 350 nM.
Consider `C[C@@H]1CN(c2ccc(Nc3ncc4c5ccnc(F)c5n(C5CCCC5)c4n3)nc2)CCN1` [Example 178, 9-Cyclopentyl-8-fluoro-N-(5-((3R)-3-methyl-1-piperazinyl)-2-pyridinyl)-9H-pyrido[4′,3′:4,5]pyrrolo[2,3-d]pyrimidin-2-amine], for which the IC50 worked out at 5 nM.
Regarding `CCN(CC)C1CCN(c2ccc(Nc3ncc4c5ccnc(F)c5n(C5CCCC5)c4n3)nc2)CC1` [Example 278, 9-Cyclopentyl-N-(5-(4-(diethylamino)-1-piperidinyl)-2-pyridinyl)-8-fluoro-9H-pyrido[4′,3′:4,5]pyrrolo[2,3-d]pyrimidin-2-amine], the IC50 amounted to 4.6 nM.
The value for `CC1(C)CN(c2ccc(Nc3ncc4c5cc[nH]c(=O)c5n(C5CCCC5)c4n3)nn2)CCN1` [Example 130] was 20 nM.
Next, `C[C@H]1CN(c2ccc(Nc3ncc4c5ccncc5n([C@@H]5CCNC5)c4n3)nc2)CCN1` [Example 339]: 300 nM.
Next, `CC[C@H](C)n1c2cnccc2c2cnc(Nc3ccc(N4CCN[C@@H](C)C4)nn3)nc21` [Example 333]: 300 nM.
On to `C[C@@H]1CN(c2ccc(Nc3ncc4c5ccncc5n(C5CCCC5)c4n3)nc2)CCN1` [Example 61], for which the IC50 is 1.7 nM.
Next, `C[C@H](O)Cn1c2cnccc2c2cnc(Nc3ccc(N4CCNCC4)nn3)nc21` [Example 409]: 281 nM; `CN(CCO)C1CCN(c2ccc(Nc3ncc4c5ccnc(F)c5n(C5CCCC5)c4n3)nc2)CC1` [Example 195, 2-((1-(6-((9-Cyclopentyl-8-fluoro-9H-pyrido[4′,3′:4,5]pyrrolo[2,3-d]pyrimidin-2-yl)amino)-3-pyridinyl)-4-piperidinyl)(methyl)amino)ethanol]: 13 nM.
Consider `C[C@H](CO)n1c2cnccc2c2cnc(Nc3ccc(N4CC[C@@H](O)C4)nn3)nc21` [Example 389], for which the IC50 was determined as 166 nM.
Next, `CN(C)C1CCN(c2ccc(Nc3ncc4c5ccncc5n([C@H]5CCC[C@@H]5O)c4n3)nc2)CC1` [Example 399]: 57 nM; `OC[C@@H]1CN(c2ccc(Nc3ncc4c5ccncc5n(C5CCCC5)c4n3)nc2)CCN1` [Example 198, ((2S)-4-(6-((9-cyclopentyl-9H-pyrido[4′,3′:4,5]pyrrolo[2,3-d]pyrimidin-2-yl)amino)-3-pyridinyl)-2-piperazinyl)methanol]: 4.6 nM.
The value for `c1cc2c3cnc(Nc4cnc(NC5CCNCC5)cn4)nc3n(C3CCCC3)c2cn1` [Example 83] was 12 nM.
Consider `CNC1CCN(c2ccc(Nc3ncc4c5ccncc5n([C@H]5CCC[C@@H]5O)c4n3)nn2)CC1` [Example 406], for which the IC50 amounted to 360 nM.
Next, `CNC1CCN(c2ccc(Nc3ncc4c5ccncc5n(C5CCCC5)c4n3)nc2)CC1` [Example 75]: 1.4 nM.
The value for `CN1CCOC2(CCN(c3ccc(Nc4ncc5c6ccncc6n(C6CCCC6)c5n4)nn3)CC2)C1` [Example 251, 9-cyclopentyl-N-(6-(4-methyl-1-oxa-4,9-diazaspiro[5.5]undec-9-yl)-3-pyridazinyl)-9H-pyrido[4′,3′:4,5]pyrrolo[2,3-d]pyrimidin-2-amine] was 3.2 nM; that for `C[C@H](CO)n1c2cnccc2c2cnc(Nc3ccc(N4CCC(N(C)C)CC4)cn3)nc21` [Example 376] was 50 nM.
In the case of `CNC1CCN(c2ccc(Nc3ncc4c5ccncc5n([C@H]5CCC[C@@H]5O)c4n3)nc2)CC1` [Example 400], the IC50 is 301 nM.
Next, `C[C@H]1CN(c2ccc(Nc3ncc4c5ccncc5n([C@@H]5CCOC5)c4n3)nn2)CCN1` [Example 429]: 92 nM; `OC[C@H]1CN(c2ccc(Nc3ncc4c5ccnc(F)c5n(C5CCCC5)c4n3)nc2)CCN1` [Example 196, ((2R)-4-(6-((9-Cyclopentyl-8-fluoro-9H-pyrido[4′,3′:4,5]pyrrolo[2,3-d]pyrimidin-2-yl)amino)-3-pyridinyl)-2-piperazinyl)methanol]: 2.4 nM; `C[C@H](O)Cn1c2cnccc2c2cnc(Nc3ccc(N4CC[C@@H](O)C4)nn3)nc21` [Example 414]: 2.6 nM.
For `CN(C)C1CCN(c2ccc(Nc3ncc4c5ccncc5n(C5CCC(C)(C)CC5)c4n3)cn2)CC1` [Example 205, N-(6-(4-(dimethylamino)-1-piperidinyl)-3-pyridinyl)-9-(4,4-dimethylcyclohexyl)-9H-pyrido[4′,3′:4,5]pyrrolo[2,3-d]pyrimidin-2-amine], the IC50 amounted to 2.6 nM.
The value for `CCN(CC)C1CCN(c2ccc(Nc3ncc4c5ccnnc5n(C5CCCC5)c4n3)nc2)CC1` [Example 281, 9-Cyclopentyl-N-(5-(4-(diethylamino)-1-piperidinyl)-2-pyridinyl)-9H-pyrimido[5′,4′:4,5]pyrrolo[2,3-c]pyridazin-7-amine] was 11 nM; that for `CCN(CC)C1CCN(c2ccc(Nc3ncc4c5ccnc(OC)c5n(C5CCCC5)c4n3)nc2)CC1` [Example 285, 9-cyclopentyl-N-(5-(4-(diethylamino)-1-piperidinyl)-2-pyridinyl)-8-methoxy-9H-pyrido[4′,3′:4,5]pyrrolo[2,3-d]pyrimidin-2-amine] was 2.6 nM; that for `C[C@@H]1CNCCN1c1ccc(Nc2ncc3c4ccnc(F)c4n(C4CCCC4)c3n2)nc1` [Example 180, 9-Cyclopentyl-8-fluoro-N-(5-((2R)-2-methyl-1-piperazinyl)-2-pyridinyl)-9H-pyrido[4′,3′:4,5]pyrrolo[2,3-d]pyrimidin-2-amine] was 2 nM.
Next, `O[C@@H]1CCN(c2ccc(Nc3ncc4c5ccncc5n([C@H]5CCC[C@H]5O)c4n3)nc2)C1` [Example 371]: 123 nM.
The value for `NC1CCN(c2cnc(Nc3ncc4c5ccncc5n(C5CCCC5)c4n3)cn2)CC1` [Example 82] was 2.6 nM; that for `C[C@@H](CO)n1c2cnccc2c2cnc(Nc3ccc(N4CC[C@@H](O)C4)cn3)nc21` [Example 368] was 284 nM; that for `NCC1CCCN(c2ccc(Nc3ncc4c5ccncc5n(C5CCCC5)c4n3)nn2)C1` (centres unmarked) [Example 95] was 4.4 nM.
For the compound `CN(C)C1CCN(c2ccc(Nc3ncc4c5ccnc(Cl)c5n(C5CCCC5)c4n3)nn2)CC1` [Example 154, 8-Chloro-9-cyclopentyl-N-(6-(4-(dimethylamino)-1-piperidinyl)-3-pyridazinyl)-9H-pyrido[4′,3′:4,5]pyrrolo[2,3-d]pyrimidin-2-amine], the half-maximal inhibitory concentration (IC50) came out at 20 nM.
The value for `CNC1CCN(c2ccc(Nc3ncc4c5ccncc5n(C[C@@H](C)O)c4n3)nn2)CC1` [Example 417] was 151 nM; that for `C[C@H](CO)n1c2cnccc2c2cnc(Nc3ccc(N4CCC(N(C)C)CC4)nn3)nc21` [Example 385] was 216 nM.
For `CC[C@H](C)n1c2cnccc2c2cnc(Nc3ccc(N4CCNC(C)(C)C4)nn3)nc21` [Example 332], the IC50 is 16 nM.
As for `CC[C@H](C)n1c2cnccc2c2cnc(Nc3ccc(N4CCC(N(C)C)CC4)nn3)nc21` [Example 327], the concentration for half-maximal inhibition (IC50) worked out at 630 nM.
Next, `CC1(C)CN(c2ccc(Nc3ncc4c5ccncc5n([C@H]5CCC[C@H]5O)c4n3)nc2)CCN1` [Example 360]: 66 nM; `CC[C@H](C)n1c2cnccc2c2cnc(Nc3ccc(N4CCN[C@@H](C)C4)cn3)nc21` [Example 329]: 500 nM.
In the case of `CC1CN(c2ccc(Nc3ncc4c5ccncc5n(C5CCCC5)c4n3)nn2)CC(C)N1` (centres unmarked) [Example 113], the IC50 was 4.2 nM.
The value for `CC1(C)CN(c2ccc(Nc3ncc4c5ccncc5n([C@@H]5CCOC5)c4n3)nc2)CCN1` [Example 432] was 17 nM; that for `CC[C@H](C)n1c2cnccc2c2cnc(Nc3ccc(N4CCNCC4)cn3)nc21` [Example 330] was 248 nM; that for `Cc1nc(Nc2ncc3c4ccnc(F)c4n(C4CCCC4)c3n2)ccc1N1CCNCC1` [Example 171, 9-Cyclopentyl-8-fluoro-N-(6-methyl-5-(1-piperazinyl)-2-pyridinyl)-9H-pyrido[4′,3′:4,5]pyrrolo[2,3-d]pyrimidin-2-amine] was 19 nM.
The value for `O[C@@H]1CCC[C@@H]1n1c2cnccc2c2cnc(Nc3ccc(N4CCNCC4)nn3)nc21` [Example 362] was 162 nM; that for `N#CCC1CCN(c2ccc(Nc3ncc4c5ccnc(F)c5n(C5CCCC5)c4n3)nc2)CC1` [Example 173, (1-(6-((9-Cyclopentyl-8-fluoro-9H-pyrido[4′,3′:4,5]pyrrolo[2,3-d]pyrimidin-2-yl)amino)-3-pyridinyl)-4-piperidinyl)acetonitrile] was 56 nM; that for `c1cc2c3cnc(Nc4ccc(N[C@H]5CCNC5)nn4)nc3n(C3CCCC3)c2cn1` [Example 92] was 8.8 nM.
With `CC1(C)CN(c2ccc(Nc3ncc4c5ccncc5n([C@@H]5CCNC5)c4n3)nc2)CCN1` [Example 338], the IC50 was determined as 302 nM.
Next, `NC1CCN(c2ccc(Nc3ncc4c5cc[nH]c(=O)c5n(C5CCCC5)c4n3)nn2)CC1` [Example 126]: 2 nM; `CN(C)C1CCN(c2ccc(Nc3ncc4c5cc[nH]c(=O)c5n(C5CCCC5)c4n3)nc2)CC1` [Example 123]: 48.1 nM.
Next, `N[C@H]1CCN(c2cnc(Nc3ncc4c5ccncc5n(C5CCCC5)c4n3)cn2)C1` [Example 89]: 7.6 nM; `C[C@H](CO)n1c2cnccc2c2cnc(Nc3ccc(N4CC[C@@H](O)C4)cn3)nc21` [Example 382]: 152 nM.
